{"source": "patent US20250041316A1", "about": "“METHODS AND COMPOSITIONS FOR TREATING LIVER DISEASE” (Temple University-Of The Commonwealth System of Higher …, priority 2023, published 2025)", "key": {"mice fed with WD": {"test_system": "mice fed with WD", "conditions": "WD 8 weeks then DHT 3 weeks under WD vs WD alone 11 weeks; FIG. 5"}, "regucalcin": {"test_system": "regucalcin", "conditions": "WD+DHT vs WD mice", "experimental": "(§1) FIG. 1A depicts a representative illustration of the experimental system used to study the effects of DHT on metabolism. Mice were fed with a Western diet (WD). At 45 days of age, one group of mice were administered DHT via pellet at Week 0 and at Week 4-5 (WD+DHT). One group of WD fed mice were not administered with DHT (WD). Mice were euthanized at Week 8. Ex vivo lipolysis, histology and molecular studies were performed."}, "[1]": {"test_system": "female mice fed with a Western diet", "experimental": "as §1"}, "[2]": {"test_system": "prolow-density lipoprotein-related protein 1", "conditions": "DHT with WD vs WD alone", "experimental": "as §1"}}}
{"compound": "C[C@]12CCC(=O)C[C@@H]1CC[C@@H]1[C@@H]2CC[C@]2(C)[C@@H](O)CC[C@@H]12", "note": "[DHT, dihydrotestosterone]", "values": [{"measurement": "liver triglyceride", "setting": "mice fed with WD", "value": "lower triglyceride"}, {"measurement": "regucalcin in liver", "setting": "regucalcin", "value": "significantly altered"}, {"measurement": "brown adipose cell size (histology)", "setting": "[1]; DHT with WD mice", "value": "enlarged"}, {"measurement": "triglyceride (TG) in circulation", "setting": "[1]; WD+DHT vs WD mice", "value": "Significantly elevated levels"}, {"measurement": "fat in liver (liver images)", "setting": "[1]; WD+DHT vs WD mice, FIG. 1C", "value": "lower levels of fat"}, {"measurement": "liver triglyceride level", "setting": "[1]; WD+DHT vs WD mice, FIG. 2A", "value": "lower levels"}, {"measurement": "liver cholesterol level", "setting": "[1]; WD+DHT vs WD mice, FIG. 2B", "value": "lower levels"}, {"measurement": "liver lipid deposition (oil red and H&E staining, histology)", "setting": "[1]; WD+DHT vs WD mice, FIG. 4", "value": "decreased lipid deposition"}, {"measurement": "glucose tolerance", "setting": "[1]; at 3 weeks, DHT with WD vs WD alone, adult female mice", "value": "more impaired glucose intolerance"}, {"measurement": "pyruvate tolerance", "setting": "[1]; at 6-7 weeks, DHT with WD vs WD alone, adult female mice", "value": "more impaired pyruvate tolerance"}, {"measurement": "prolow-density lipoprotein-related protein 1 in liver", "setting": "[2]", "value": "significantly altered"}]}
